In patent publication US9695155B2, “Herbicidal substituted pyrimidinyloxy benzene compounds” (E. I. DU PONT DE NEMOURS AND COMPANY, priority 2013, dated 2017):

Assays:
green foxtail = experiment: Test D preemergence; format: in vivo, Setaria viridis; details: Setaria viridis, pre-emergence
Summary of the method: (§1)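 In a controlled growth environment, treated and control plants were held 7 to 21 days, then compared visually. Damage was scored 0–100, where 100 means complete control. Sprays contained surfactant in a non-phytotoxic solvent; post-applied plants were at the 1- to 4-leaf stage.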

blackgrass = experiment: Test D preemergence; format: in vivo, Alopecurus myosuroides; details: Alopecurus myosuroides, pre-emergence
Summary of the method: as §1

bromegrass, downy [1] = experiment: Test D postemergence; format: in vivo, Bromus tectorum; details: Bromus tectorum, post-emergence, Postemergence, scale 0 to 100 (0 no effect, 100 complete control), read-out: Plant response rating, Bromegrass, Downy
Summary of the method: as §1

canarygrass = experiment: Test D preemergence; format: in vivo, Phalaris minor; details: Phalaris minor, pre-emergence
Summary of the method: as §1

wild oat = experiment: Test D postemergence; format: in vivo, Avena fatua; details: Avena fatua, post-emergence
Summary of the method: as §1

bluegrass [2] = experiment: Test D preemergence; format: in vivo, Poa annua; details: Poa annua, pre-emergence
Summary of the method: as §1

spring barley = experiment: Test D postemergence; format: in vivo, Hordeum vulgare; details: Hordeum vulgare, post-emergence, Postemergence, scale 0 to 100 (0 no effect, 100 complete control), read-out: Plant response rating, Barley, Spring
Summary of the method: as §1

winter barley = experiment: Test D postemergence; format: in vivo, Hordeum vulgare; details: Hordeum vulgare, post-emergence, Postemergence, scale 0 to 100 (0 no effect, 100 complete control), read-out: Plant response rating, Barley, Winter
Summary of the method: as §1

bromegrass, downy [3] = experiment: Test D preemergence; format: in vivo, Bromus tectorum; details: Bromus tectorum, pre-emergence
Summary of the method: as §1

lambsquarters = experiment: Test D postemergence; format: in vivo, Chenopodium album; details: Chenopodium album, post-emergence
Summary of the method: as §1

bluegrass [4] = experiment: Test D postemergence; format: in vivo, Poa annua; details: Poa annua, post-emergence, Postemergence, scale 0 to 100 (0 no effect, 100 complete control), read-out: Plant response rating, Bluegrass
Summary of the method: as §1

chamomile = experiment: Test D postemergence; format: in vivo, Matricaria inodora; details: Tripleurospermum inodorum, post-emergence
Summary of the method: as §1

FC(F)(F)c1cn(-c2ccccc2Oc2ncc(Cl)cn2)nn1 [Compound 166, 5-chloro-2-[2-[4-(trifluoromethyl)-1H-1,2,3-triazol-1-yl]phenoxy]pyrimidine]
pest or weed control at 16 g/ha (green foxtail; 16 g ai/ha, scale 0 (no effect) to 100 (complete control), read-out: Plant response rating, Foxtail, Green): 25%
pest or weed control at 31 g/ha (green foxtail; 31 g ai/ha, scale 0-100, read-out: Plant response rating, Foxtail, Green): 65%
pest or weed control at 62 g/ha (green foxtail; 62 g ai/ha, scale 0-100, read-out: Plant response rating, Foxtail, Green): 100%
pest or weed control at 125 g/ha (green foxtail; 125 g ai/ha, scale 0-100, read-out: Plant response rating, Foxtail, Green): 100%
pest or weed control at 16 g/ha (blackgrass; 16 g ai/ha, scale 0 (no effect) to 100 (complete control), read-out: Plant response rating, Blackgrass): 10%
pest or weed control at 31 g/ha (blackgrass; 31 g ai/ha, scale 0-100, read-out: Plant response rating, Blackgrass): 55%
pest or weed control at 62 g/ha (blackgrass; 62 g ai/ha, scale 0-100, read-out: Plant response rating, Blackgrass): 70%
pest or weed control at 125 g/ha (blackgrass; 125 g ai/ha, scale 0-100, read-out: Plant response rating, Blackgrass): 95%
pest or weed control at 16 g/ha (bromegrass, downy [1]; 16 g ai/ha): 15%
pest or weed control at 31 g/ha (bromegrass, downy [1]; 31 g ai/ha): 20%
pest or weed control at 62 g/ha (bromegrass, downy [1]; 62 g ai/ha): 35%
pest or weed control at 125 g/ha (bromegrass, downy [1]; 125 g ai/ha): 50%
pest or weed control at 16 g/ha (canarygrass; 16 g ai/ha, scale 0 (no effect) to 100 (complete control), read-out: Plant response rating, Canarygrass): 30%
pest or weed control at 31 g/ha (canarygrass; 31 g ai/ha, scale 0-100, read-out: Plant response rating, Canarygrass): 50%
pest or weed control at 62 g/ha (canarygrass; 62 g ai/ha, scale 0-100, read-out: Plant response rating, Canarygrass): 70%
pest or weed control at 125 g/ha (canarygrass; 125 g ai/ha, scale 0-100, read-out: Plant response rating, Canarygrass): 100%
pest or weed control at 16 g/ha (wild oat; 16 g ai/ha, scale 0-100, read-out: Plant response rating, Oat, Wild): 25%
pest or weed control at 31 g/ha (wild oat; 31 g ai/ha, scale 0 to 100 (0 no effect, 100 complete control), read-out: Plant response rating, Oat, Wild): 30%
pest or weed control at 62 g/ha (wild oat; 62 g ai/ha, scale 0 to 100 (0 no effect, 100 complete control), read-out: Plant response rating, Oat, Wild): 35%
pest or weed control at 125 g/ha (wild oat; 125 g ai/ha, scale 0 to 100 (0 no effect, 100 complete control), read-out: Plant response rating, Oat, Wild): 40%
pest or weed control at 16 g/ha (bluegrass [2]; 16 g ai/ha, scale 0 (no effect) to 100 (complete control), read-out: Plant response rating, Bluegrass): 5%
pest or weed control at 31 g/ha (bluegrass [2]; 31 g ai/ha, scale 0-100, read-out: Plant response rating, Bluegrass): 20%
pest or weed control at 62 g/ha (bluegrass [2]; 62 g ai/ha, scale 0-100, read-out: Plant response rating, Bluegrass): 65%
pest or weed control at 125 g/ha (bluegrass [2]; 125 g ai/ha, scale 0-100, read-out: Plant response rating, Bluegrass): 100%
plant injury at 16 g/ha (spring barley; 16 g ai/ha): 10%
plant injury at 31 g/ha (spring barley; 31 g ai/ha): 20%
plant injury at 62 g/ha (spring barley; 62 g ai/ha): 30%
plant injury at 125 g/ha (spring barley; 125 g ai/ha): 45%
plant injury at 16 g/ha (winter barley; 16 g ai/ha): 5%
plant injury at 31 g/ha (winter barley; 31 g ai/ha): 15%
plant injury at 62 g/ha (winter barley; 62 g ai/ha): 25%
plant injury at 125 g/ha (winter barley; 125 g ai/ha): 35%
pest or weed control at 16 g/ha (bromegrass, downy [3]; 16 g ai/ha, scale 0 (no effect) to 100 (complete control), read-out: Plant response rating, Bromegrass, Downy): 5%
pest or weed control at 31 g/ha (bromegrass, downy [3]; 31 g ai/ha, scale 0-100, read-out: Plant response rating, Bromegrass, Downy): 5%
pest or weed control at 62 g/ha (bromegrass, downy [3]; 62 g ai/ha, scale 0-100, read-out: Plant response rating, Bromegrass, Downy): 25%
pest or weed control at 125 g/ha (bromegrass, downy [3]; 125 g ai/ha, scale 0-100, read-out: Plant response rating, Bromegrass, Downy): 50%
pest or weed control at 16 g/ha (lambsquarters; 16 g ai/ha, scale 0-100, read-out: Plant response rating, Lambsquarters): 80%
pest or weed control at 31 g/ha (lambsquarters; 31 g ai/ha, scale 0 to 100 (0 no effect, 100 complete control), read-out: Plant response rating, Lambsquarters): 90%
pest or weed control at 62 g/ha (lambsquarters; 62 g ai/ha, scale 0 to 100 (0 no effect, 100 complete control), read-out: Plant response rating, Lambsquarters): 95%
pest or weed control at 125 g/ha (lambsquarters; 125 g ai/ha, scale 0 to 100 (0 no effect, 100 complete control), read-out: Plant response rating, Lambsquarters): 95%
pest or weed control at 16 g/ha (bluegrass [4]; 16 g ai/ha): 20%
pest or weed control at 31 g/ha (bluegrass [4]; 31 g ai/ha): 40%
pest or weed control at 62 g/ha (bluegrass [4]; 62 g ai/ha): 55%
pest or weed control at 125 g/ha (bluegrass [4]; 125 g ai/ha): 65%
pest or weed control at 16 g/ha (chamomile; 16 g ai/ha, scale 0-100, read-out: Plant response rating, Chamomile): 5%
pest or weed control at 31 g/ha (chamomile; 31 g ai/ha, scale 0 to 100 (0 no effect, 100 complete control), read-out: Plant response rating, Chamomile): 5%
pest or weed control at 62 g/ha (chamomile; 62 g ai/ha, scale 0 to 100 (0 no effect, 100 complete control), read-out: Plant response rating, Chamomile): 10%
pest or weed control at 125 g/ha (chamomile; 125 g ai/ha, scale 0 to 100 (0 no effect, 100 complete control), read-out: Plant response rating, Chamomile): 15%
